Active and inactive are the calls of the source. The rule behind the calls is not given here.
Key:
[1] = target: Receptor tyrosine-protein kinase erbB-4 (Homo sapiens) (UniProt Q15303); assay: Inhibition of ERBB4 at 30 uM
[2] = target: Mitogen-activated protein kinase 1 (Homo sapiens) (UniProt P28482); assay: Inhibition of ERK2 at 30 uM
[3] = target: T1, Serine/threonine-protein kinase Sgk1 (Homo sapiens) (UniProt O00141); assay: Inhibition of SGK1 at 30 uM
T1 sequence (whole entry): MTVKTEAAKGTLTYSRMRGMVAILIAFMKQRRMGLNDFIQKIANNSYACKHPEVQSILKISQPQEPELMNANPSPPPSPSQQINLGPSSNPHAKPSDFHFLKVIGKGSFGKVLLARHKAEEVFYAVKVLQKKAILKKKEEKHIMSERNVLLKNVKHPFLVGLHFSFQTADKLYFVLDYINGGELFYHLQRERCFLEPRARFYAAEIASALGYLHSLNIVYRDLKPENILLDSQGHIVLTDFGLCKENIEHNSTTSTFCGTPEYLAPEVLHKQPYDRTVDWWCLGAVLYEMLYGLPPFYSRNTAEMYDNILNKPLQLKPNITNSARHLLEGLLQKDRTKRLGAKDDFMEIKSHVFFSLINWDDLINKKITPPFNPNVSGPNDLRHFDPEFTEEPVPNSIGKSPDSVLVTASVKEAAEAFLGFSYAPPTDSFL

Cytochrome P450 2D6 = Cytochrome P450 2D6 (Homo sapiens, UniProt P10635); assay: Inhibition of CYP2D6; type: ADME
Cytochrome P450 2D6, sequence (P10635 whole entry): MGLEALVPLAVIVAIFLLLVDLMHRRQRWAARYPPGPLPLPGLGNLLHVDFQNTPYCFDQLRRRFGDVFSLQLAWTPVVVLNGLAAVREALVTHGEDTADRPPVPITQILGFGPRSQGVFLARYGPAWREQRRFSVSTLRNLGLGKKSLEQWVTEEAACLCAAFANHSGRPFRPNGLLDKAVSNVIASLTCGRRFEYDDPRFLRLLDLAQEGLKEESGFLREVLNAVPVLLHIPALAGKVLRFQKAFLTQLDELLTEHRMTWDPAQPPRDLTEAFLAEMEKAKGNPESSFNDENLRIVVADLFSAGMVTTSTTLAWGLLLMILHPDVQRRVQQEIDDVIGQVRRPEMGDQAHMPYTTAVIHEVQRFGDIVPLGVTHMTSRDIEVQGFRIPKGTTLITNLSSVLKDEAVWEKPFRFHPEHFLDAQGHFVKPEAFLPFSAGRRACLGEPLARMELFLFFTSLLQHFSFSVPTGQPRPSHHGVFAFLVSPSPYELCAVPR

[4] = target: Tyrosine-protein kinase BTK (Homo sapiens) (UniProt Q06187); assay: Inhibition of BTK at 30 uM
Tyrosine-protein kinase BTK (Homo sapiens), sequence (Q06187 whole entry): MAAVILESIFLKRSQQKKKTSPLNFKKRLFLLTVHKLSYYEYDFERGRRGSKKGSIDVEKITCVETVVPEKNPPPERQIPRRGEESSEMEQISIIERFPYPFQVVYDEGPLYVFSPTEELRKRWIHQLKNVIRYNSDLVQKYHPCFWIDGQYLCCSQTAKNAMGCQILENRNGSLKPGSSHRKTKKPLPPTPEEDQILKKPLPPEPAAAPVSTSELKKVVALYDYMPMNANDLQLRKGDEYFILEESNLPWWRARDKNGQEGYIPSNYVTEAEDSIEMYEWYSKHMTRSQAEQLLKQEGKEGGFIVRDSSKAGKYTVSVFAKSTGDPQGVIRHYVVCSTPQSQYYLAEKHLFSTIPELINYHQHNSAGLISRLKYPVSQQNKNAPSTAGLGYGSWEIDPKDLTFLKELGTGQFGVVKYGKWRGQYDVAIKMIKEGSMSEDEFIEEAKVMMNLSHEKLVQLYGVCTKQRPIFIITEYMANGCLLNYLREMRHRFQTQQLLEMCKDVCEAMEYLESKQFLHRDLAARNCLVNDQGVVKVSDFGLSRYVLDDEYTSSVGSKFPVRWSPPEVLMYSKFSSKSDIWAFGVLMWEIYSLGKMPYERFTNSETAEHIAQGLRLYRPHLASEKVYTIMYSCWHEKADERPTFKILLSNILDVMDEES

[5] = target: Glycogen synthase kinase-3 beta (Homo sapiens) (UniProt P49841); assay: Inhibition of GSK3b at 30 uM
Glycogen synthase kinase-3 beta (Homo sapiens), sequence (P49841 whole entry, looked up): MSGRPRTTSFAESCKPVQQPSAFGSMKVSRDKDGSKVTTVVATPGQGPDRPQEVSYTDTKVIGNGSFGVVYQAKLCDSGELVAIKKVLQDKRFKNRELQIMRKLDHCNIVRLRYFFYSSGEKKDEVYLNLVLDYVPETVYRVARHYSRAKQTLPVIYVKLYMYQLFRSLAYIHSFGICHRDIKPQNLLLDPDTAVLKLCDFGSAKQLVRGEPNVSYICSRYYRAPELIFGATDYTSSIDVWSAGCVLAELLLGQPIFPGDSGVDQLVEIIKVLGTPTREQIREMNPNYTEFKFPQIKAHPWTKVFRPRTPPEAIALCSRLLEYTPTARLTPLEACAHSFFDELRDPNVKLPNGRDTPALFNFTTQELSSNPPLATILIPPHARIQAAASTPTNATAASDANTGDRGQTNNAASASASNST

[6] = Selectivity for B-Raf over c-Met
[7] = target: T2, Inhibitor of nuclear factor kappa-B kinase subunit beta (Homo sapiens) (UniProt O14920); assay: Inhibition of IKK2 at 30 uM
T2 sequence (whole entry): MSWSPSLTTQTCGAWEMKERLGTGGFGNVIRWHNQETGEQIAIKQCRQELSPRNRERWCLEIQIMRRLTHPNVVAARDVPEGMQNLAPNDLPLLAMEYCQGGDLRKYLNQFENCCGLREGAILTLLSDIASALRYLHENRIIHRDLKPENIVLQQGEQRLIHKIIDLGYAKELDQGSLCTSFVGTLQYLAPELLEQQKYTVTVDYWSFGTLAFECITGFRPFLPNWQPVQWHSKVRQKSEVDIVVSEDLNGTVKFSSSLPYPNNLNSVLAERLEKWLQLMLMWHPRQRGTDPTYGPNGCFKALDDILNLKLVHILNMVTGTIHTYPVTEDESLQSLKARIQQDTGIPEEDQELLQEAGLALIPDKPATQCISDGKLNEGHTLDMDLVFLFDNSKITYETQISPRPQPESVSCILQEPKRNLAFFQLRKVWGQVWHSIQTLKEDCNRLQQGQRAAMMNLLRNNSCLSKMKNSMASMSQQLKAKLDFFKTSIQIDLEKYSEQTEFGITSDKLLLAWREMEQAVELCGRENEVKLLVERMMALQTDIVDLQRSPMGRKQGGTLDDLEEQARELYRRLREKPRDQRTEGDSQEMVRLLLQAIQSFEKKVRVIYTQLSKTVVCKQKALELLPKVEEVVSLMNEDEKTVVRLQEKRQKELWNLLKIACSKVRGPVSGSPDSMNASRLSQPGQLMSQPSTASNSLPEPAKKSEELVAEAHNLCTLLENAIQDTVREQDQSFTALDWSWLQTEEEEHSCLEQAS

[8] = target: Insulin-like growth factor 1 receptor (Homo sapiens) (UniProt P08069); assay: Inhibition of IGF1R at 30 uM
Insulin-like growth factor 1 receptor (Homo sapiens), sequence (P08069 31-736 limits assumed): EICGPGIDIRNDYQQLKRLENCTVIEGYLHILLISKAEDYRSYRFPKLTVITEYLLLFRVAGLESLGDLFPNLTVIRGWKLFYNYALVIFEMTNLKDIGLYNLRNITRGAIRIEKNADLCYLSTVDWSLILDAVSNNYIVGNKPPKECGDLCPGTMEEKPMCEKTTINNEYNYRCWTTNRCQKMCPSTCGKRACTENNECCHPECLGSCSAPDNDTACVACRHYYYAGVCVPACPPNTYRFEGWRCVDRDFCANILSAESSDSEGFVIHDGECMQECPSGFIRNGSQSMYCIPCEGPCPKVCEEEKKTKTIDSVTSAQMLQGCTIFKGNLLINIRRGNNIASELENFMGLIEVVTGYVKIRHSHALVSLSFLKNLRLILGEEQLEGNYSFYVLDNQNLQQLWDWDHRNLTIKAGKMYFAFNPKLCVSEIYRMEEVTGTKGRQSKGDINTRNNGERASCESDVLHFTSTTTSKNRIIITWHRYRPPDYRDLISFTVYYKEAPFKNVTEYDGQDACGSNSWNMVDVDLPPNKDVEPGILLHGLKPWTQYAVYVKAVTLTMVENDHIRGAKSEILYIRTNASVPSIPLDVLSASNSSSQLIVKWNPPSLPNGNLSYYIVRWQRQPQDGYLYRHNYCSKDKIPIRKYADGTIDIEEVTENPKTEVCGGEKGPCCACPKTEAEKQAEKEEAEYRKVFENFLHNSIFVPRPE
Insulin-like growth factor 1 receptor (Homo sapiens), sequence (P08069 741-1367 limits assumed): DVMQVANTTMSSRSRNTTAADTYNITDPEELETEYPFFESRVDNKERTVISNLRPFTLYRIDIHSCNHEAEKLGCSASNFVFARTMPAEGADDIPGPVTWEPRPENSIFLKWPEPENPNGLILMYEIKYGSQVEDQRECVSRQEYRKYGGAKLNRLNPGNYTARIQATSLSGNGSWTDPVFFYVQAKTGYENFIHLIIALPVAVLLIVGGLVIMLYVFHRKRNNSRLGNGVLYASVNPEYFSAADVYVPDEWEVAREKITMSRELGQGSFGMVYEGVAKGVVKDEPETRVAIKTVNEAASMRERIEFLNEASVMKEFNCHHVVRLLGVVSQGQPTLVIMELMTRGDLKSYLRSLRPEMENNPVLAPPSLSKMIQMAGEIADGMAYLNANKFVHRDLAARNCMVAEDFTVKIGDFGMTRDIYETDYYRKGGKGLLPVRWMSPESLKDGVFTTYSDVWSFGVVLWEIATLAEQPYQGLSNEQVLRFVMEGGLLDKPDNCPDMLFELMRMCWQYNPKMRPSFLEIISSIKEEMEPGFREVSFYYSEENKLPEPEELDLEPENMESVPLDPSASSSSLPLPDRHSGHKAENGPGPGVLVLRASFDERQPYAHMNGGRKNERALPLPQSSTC

[9] = target: T3, Tyrosine-protein kinase ZAP-70 (Homo sapiens) (UniProt P43403); assay: Inhibition of ZAP70 at 30 uM
T3 sequence (whole entry): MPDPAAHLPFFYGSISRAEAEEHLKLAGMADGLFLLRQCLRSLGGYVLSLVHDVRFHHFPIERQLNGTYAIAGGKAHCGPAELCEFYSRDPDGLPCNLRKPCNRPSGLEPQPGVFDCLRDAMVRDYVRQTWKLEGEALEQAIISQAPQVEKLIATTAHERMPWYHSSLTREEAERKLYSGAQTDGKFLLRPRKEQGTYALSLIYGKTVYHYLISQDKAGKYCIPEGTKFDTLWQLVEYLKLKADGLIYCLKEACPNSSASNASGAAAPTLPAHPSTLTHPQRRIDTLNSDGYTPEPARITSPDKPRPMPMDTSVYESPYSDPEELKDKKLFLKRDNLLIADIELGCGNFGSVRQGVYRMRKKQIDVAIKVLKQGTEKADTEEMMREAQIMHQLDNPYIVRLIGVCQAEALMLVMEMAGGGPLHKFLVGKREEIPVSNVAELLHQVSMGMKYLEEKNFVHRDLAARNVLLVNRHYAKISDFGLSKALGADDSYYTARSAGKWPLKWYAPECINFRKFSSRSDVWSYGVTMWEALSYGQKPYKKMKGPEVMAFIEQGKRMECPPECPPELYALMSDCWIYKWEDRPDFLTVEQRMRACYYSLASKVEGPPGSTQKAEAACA

[10] = Selectivity for B-Raf over VEGFR2
[11] = target: Cyclin-dependent kinase 2 (Homo sapiens) (UniProt P24941); assay: Inhibition of CDK2 at 30 uM
[12] = target: Tyrosine-protein kinase SYK (Homo sapiens) (UniProt P43405); assay: Inhibition of SYK at 30 uM
Cytochrome P450 2C9 = Cytochrome P450 2C9 (Homo sapiens, UniProt P11712); assay: Inhibition of CYP2C9; type: ADME
Cytochrome P450 2C9, sequence (P11712 whole entry): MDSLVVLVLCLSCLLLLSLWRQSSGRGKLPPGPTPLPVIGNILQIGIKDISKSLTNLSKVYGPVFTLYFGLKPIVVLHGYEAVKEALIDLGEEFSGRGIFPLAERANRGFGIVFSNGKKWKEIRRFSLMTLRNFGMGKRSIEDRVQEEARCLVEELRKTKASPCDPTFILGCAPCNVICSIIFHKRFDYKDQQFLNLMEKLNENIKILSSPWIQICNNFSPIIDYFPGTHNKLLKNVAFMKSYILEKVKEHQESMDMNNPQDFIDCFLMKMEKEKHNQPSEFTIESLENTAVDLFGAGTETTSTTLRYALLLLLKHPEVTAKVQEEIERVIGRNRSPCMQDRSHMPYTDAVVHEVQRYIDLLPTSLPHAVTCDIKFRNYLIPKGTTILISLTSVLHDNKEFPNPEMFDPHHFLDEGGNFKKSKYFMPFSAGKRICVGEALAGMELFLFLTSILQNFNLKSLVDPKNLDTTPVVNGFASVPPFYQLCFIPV

[13] = target: RAC-alpha serine/threonine-protein kinase (Homo sapiens) (UniProt P31749); assay: Inhibition of AKT1 at 30 uM
RAC-alpha serine/threonine-protein kinase (Homo sapiens), sequence (P31749 whole entry): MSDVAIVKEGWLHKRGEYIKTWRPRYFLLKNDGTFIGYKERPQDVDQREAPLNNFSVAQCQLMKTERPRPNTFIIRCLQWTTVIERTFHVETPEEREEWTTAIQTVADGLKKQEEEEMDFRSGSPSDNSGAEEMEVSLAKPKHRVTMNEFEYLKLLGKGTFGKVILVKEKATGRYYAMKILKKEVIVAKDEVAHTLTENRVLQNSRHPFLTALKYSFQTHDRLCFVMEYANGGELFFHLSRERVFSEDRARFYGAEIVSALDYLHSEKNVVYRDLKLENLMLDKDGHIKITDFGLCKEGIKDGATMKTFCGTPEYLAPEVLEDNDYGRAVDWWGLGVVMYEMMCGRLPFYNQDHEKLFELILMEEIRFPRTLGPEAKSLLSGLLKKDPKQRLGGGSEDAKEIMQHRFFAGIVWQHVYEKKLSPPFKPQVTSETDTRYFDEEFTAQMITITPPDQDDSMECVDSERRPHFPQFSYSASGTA

[14] = target: Serine/threonine-protein kinase B-raf (Homo sapiens, UniProt P15056); assay: Inhibition of B-Raf by fluorescence anisotropy binding assay
Serine/threonine-protein kinase B-raf, sequence (P15056 whole entry): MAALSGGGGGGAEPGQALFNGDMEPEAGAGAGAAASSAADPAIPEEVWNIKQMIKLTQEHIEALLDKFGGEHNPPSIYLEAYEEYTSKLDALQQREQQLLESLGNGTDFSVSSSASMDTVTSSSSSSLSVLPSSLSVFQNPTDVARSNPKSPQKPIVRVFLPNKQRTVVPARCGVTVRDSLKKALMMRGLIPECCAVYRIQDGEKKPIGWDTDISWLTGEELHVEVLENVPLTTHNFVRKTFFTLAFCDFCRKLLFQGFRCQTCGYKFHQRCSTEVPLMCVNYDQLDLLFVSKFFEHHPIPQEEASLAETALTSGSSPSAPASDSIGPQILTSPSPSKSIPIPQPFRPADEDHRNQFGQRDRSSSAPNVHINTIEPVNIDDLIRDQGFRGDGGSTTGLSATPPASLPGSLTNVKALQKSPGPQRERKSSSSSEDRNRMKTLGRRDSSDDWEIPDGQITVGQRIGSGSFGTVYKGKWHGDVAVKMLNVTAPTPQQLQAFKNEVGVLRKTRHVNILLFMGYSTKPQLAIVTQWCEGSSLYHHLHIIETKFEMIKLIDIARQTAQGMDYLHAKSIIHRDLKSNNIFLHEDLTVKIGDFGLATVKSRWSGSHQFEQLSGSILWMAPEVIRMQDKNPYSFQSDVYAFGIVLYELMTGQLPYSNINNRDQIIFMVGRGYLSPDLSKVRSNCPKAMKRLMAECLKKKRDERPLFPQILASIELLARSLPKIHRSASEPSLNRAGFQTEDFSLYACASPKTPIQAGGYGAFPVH

Mitogen-activated protein kinase 1 (Homo sapiens), sequence (P28482 whole entry): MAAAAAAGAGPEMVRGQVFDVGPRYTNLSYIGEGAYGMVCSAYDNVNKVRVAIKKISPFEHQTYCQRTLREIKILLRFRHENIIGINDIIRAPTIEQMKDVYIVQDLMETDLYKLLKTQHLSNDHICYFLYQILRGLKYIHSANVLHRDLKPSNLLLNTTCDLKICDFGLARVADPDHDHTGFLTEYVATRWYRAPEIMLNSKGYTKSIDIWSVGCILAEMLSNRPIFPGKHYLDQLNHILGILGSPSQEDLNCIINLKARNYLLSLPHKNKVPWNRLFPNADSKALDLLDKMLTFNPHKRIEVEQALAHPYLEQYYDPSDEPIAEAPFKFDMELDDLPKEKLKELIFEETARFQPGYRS

## CCn1cc(-c2ccnc3[nH]ccc23)c(-c2cccc(NC(=O)Nc3ccc(C(F)(F)F)cc3)c2)n1
[1]
  Activity: inactive
[2]
  Activity: inactive
[3]
  Activity: inactive
Cytochrome P450 2D6
  IC50: 5010 nM
[4]
  Activity: inactive
[5]
  Activity: inactive
[6]
  fold change (FC): 100
[7]
  Activity: inactive
[8]
  Activity: inactive
[9]
  Activity: inactive
[10]
  fold change (FC): 100
[11]
  Activity: inactive
[12]
  Activity: inactive
Cytochrome P450 2C9
  IC50: 1260 nM
[13]
  Activity: inactive

## CCOC(=O)c1cc2c(-c3cn(CC)nc3-c3cccc(NC(=O)Nc4ccccc4)c3)ccnc2[nH]1
[14]
  IC50: 33.9 nM

## CCn1cc(-c2ccnc3[nH]cc(Br)c23)c(-c2cccc(NC(=O)Nc3ccccc3)c2)n1
[14]
  IC50: 79.4 nM

## CCn1cc(-c2ccnc3[nH]ccc23)c(-c2cccc(NC(=O)Nc3cccc(OC)c3)c2)n1
Cytochrome P450 2D6
  IC50: 200 nM
[14]
  IC50: 2.1 nM
Cytochrome P450 2C9
  IC50: 316 nM

## CCn1cc(-c2ccnc3[nH]c(C(=O)O)cc23)c(-c2cccc(NC(=O)Nc3ccccc3)c2)n1
[14]
  IC50: 45.7 nM

## CCn1cc(-c2ccnc3[nH]ccc23)c(-c2cccc(NC(=O)Nc3c(F)cccc3F)c2)n1
[14]
  IC50: 25.7 nM

## CCn1cc(-c2ccnc3[nH]ccc23)c(-c2cccc(NC(=O)Nc3ccc(Cl)c(C(F)(F)F)c3)c2)n1
[14]
  IC50: 5.4 nM

## CCn1cc(-c2ccnc3[nH]ccc23)c(-c2cccc(NC(=O)NC3CCCCC3)c2)n1
[14]
  IC50: 41.7 nM

## CCn1cc(-c2ccnc3[nH]ccc23)c(-c2cccc(NC(=O)Nc3cc(C(F)(F)F)ccc3F)c2)n1
[14]
  IC50: 3.9 nM

Reference: ChEMBL document CHEMBL1156556, “Knowledge-based design of 7-azaindoles as selective B-Raf inhibitors” (Bioorg Med Chem Lett, 2008)
